Measurements taken from ChEMBL document CHEMBL5120860, “Ansellone J, a Potent in Vitro and ex Vivo HIV-1 Latency Reversal Agent Isolated from a Phorbas sp. Marine Sponge” (J Nat Prod, 2022).

What was measured:
[1] = Inhibition of HIV-1 latency reversal in GFP-fused human J-lat 9.2 cells at 3 uM incubated for 24 hrs in presence of pan-PKC inhibitor Go 6983 by flow cytometry analysis relative to control; format: functional; details: Human immunodeficiency virus 1, J-Lat 9.2
[2] = tested on: Human immunodeficiency virus 1; test: Reversal of HIV-1 latency infected in GFP-fused human J-Lat 9.2 cells assessed as increase in GFP expression at 10 uM incubated for 24 hrs by flow cytometry analysis relative to control; format: functional
[3] = Inhibition of HIV-1 latency reversal in GFP-fused human J-lat 9.2 cells at 10 uM incubated for 24 hrs in presence of pan-PKC inhibitor Go 6983 by flow cytometry analysis relative to control; format: functional; details: Human immunodeficiency virus 1, J-Lat 9.2
[4] = tested on: Human immunodeficiency virus 1; test: Reversal of HIV-1 latency infected in GFP-fused human J-Lat 9.2 cells assessed as increase in GFP expression at 30 uM incubated for 24 hrs by flow cytometry analysis relative to control; format: functional
[5] = tested on: Human immunodeficiency virus 1; test: Reversal of HIV-1 latency infected in GFP-fused human J-Lat 9.2 cells assessed as increase in GFP expression at 3 uM incubated for 24 hrs by flow cytometry analysis relative to control; format: functional
[6] = Cytotoxicity against human CD4+ T cells derived from cARC-suppressed donors with HIV assessed as cell viability at 1 uM incubated for 24 hrs by trypan blue staining based analysis relative to control; format: toxicity, CD4+ve Th; details: primary CD4+ T cells from cART-suppressed donors with HIV, read-out: Activity
[7] = tested on: Human immunodeficiency virus 1; test: Reversal of HIV-1 latency in human CD4+ T cells derived from cARC-suppressed donors with HIV assessed as fold increase in viral RNA copies measured per ml of supernatant at 1 uM incubated for 24 hrs by qRT-PCR analysis; format: functional, CD4+ve Th
[8] = Inhibition of HIV-1 latency reversal in GFP-fused human J-lat 9.2 cells at 1 uM incubated for 24 hrs in presence of pan-PKC inhibitor Go 6983 by flow cytometry analysis relative to control; format: functional; details: Human immunodeficiency virus 1, J-Lat 9.2
[9] = tested on: Human immunodeficiency virus 1; test: Reversal of HIV-1 latency in human CD4+ T cells derived from cARC-suppressed donors with HIV assessed as increase in viral RNA copies measured per ml of supernatant at 1 uM incubated for 24 hrs by qRT-PCR analysis (reference value: 191 +/- 321); format: functional, CD4+ve Th
[10] = Cytotoxicity against human CD4+ T cells derived from cARC-suppressed donors with HIV assessed as cell viability at 10 uM incubated for 24 hrs by trypan blue staining based analysis relative to control; format: toxicity, CD4+ve Th; details: primary CD4+ T cells from cART-suppressed donors with HIV, read-out: Activity
[11] = tested on: Human immunodeficiency virus 1; test: Reversal of HIV-1 latency in human CD4+ T cells derived from cARC-suppressed donors with HIV assessed as fold increase in viral RNA copies measured per ml of supernatant at 10 uM incubated for 24 hrs by qRT-PCR analysis; format: functional, CD4+ve Th
[12] = tested on: Human immunodeficiency virus 1; test: Reversal of HIV-1 latency in human CD4+ T cells derived from cARC-suppressed donors with HIV assessed as increase in viral RNA copies measured per ml of supernatant at 10 uM incubated for 24 hrs by qRT-PCR analysis (reference value: 191 +/- 321); format: functional, CD4+ve Th

Structure (SMILES): CC(=O)O[C@H]1C[C@]2(C)c3cc(C)c(O)cc3C(C)=CC(=O)[C@@H]2[C@@]2(C)CCCC(C)(C)[C@H]12
- inhibition at 3 µM [1]: > 95%
- Activity [2]: 36.8%

Structure (SMILES): CC(=O)O[C@]1(C)C[C@@H](/C=C(\C)CCC=C(C)C)O[C@@]2(C=C(CO)[C@H]3CC(=O)C(C)=C[C@H]3O2)C1
- inhibition at 10 µM [3]: > 90%
- Activity [4]: 26.2%

Structure (SMILES): CC1=C[C@H]2O[C@@H]([C@@H]3[C@@]4(C)CCCC(C)(C)[C@@H]4C=C[C@@]3(C)O)C=C(CO)[C@H]2CC1=O
- Activity [5]: 27.3%
- viability at 24 h, 1 µM [6]: 82.4%
- fold change (FC) [7]: 2.7
- inhibition at 1 µM [8]: > 95%
- Activity [9]: 519

Structure (SMILES): CC(=O)O[C@@]12C[C@@H](C)[C@@]3(O)[C@@H](C=C(CO)C[C@]4(O)C(=O)C(C)=C[C@@H]34)[C@@H]1C2(C)C [PROSTRATIN]
- viability at 24 h, 10 µM [10]: 84%
- fold change (FC) [11]: 2.8
- Activity [12]: 685
- inhibition at 10 µM [3]: > 90%
- Activity [4]: 11.7%
- Activity [2]: 11.1%
